± gives the expanded uncertainty stated by the source.
Experiments:
[1] = refractive index (Na D-line) (dimensionless); conditions: 101.33 kPa, Liquid, Standard Abbe refractometry
[2] = for viscosity / mass density: 101.33 kPa, Liquid; for viscosity: Concentric cylinders viscometry; for mass density: Vibrating tube method; for Glass transition temperature: DSC; for Normal melting temperature: Crystal, DTA

Cc1ccc(S(=O)(=O)[O-])cc1.N#CCCn1cc[nH+]c1 [1-(2-cyanoethyl)imidazolium 4-methylbenzenesulfonate]
Conditions | mass density, [2] [kg/m3] | refractive index, [1] | viscosity, [2] [mPa·s]
293.15 K | – | 1.54509 ± 0.0072 | –
298.15 K | – | 1.54414 ± 0.0072 | –
303.15 K | 1266.3 ± 30 | 1.54297 ± 0.0072 | 24795 ± 2900
308.15 K | – | 1.54177 ± 0.0072 | –
313.15 K | 1259.6 ± 30 | 1.54051 ± 0.0072 | 6910.9 ± 670
318.15 K | – | 1.53926 ± 0.0072 | –
323.15 K | 1253 ± 30 | 1.53798 ± 0.0072 | 2376.6 ± 190
333.15 K | 1247.9 ± 30 | – | 977.44 ± 67
343.15 K | 1241.2 ± 29 | – | 459.63 ± 27
353.15 K | 1233.7 ± 29 | – | 239.96 ± 13
363.15 K | 1229.1 ± 29 | – | 138.89 ± 6.7
373.15 K | 1221.5 ± 28 | – | 85.89 ± 4

Conditions | Glass transition temperature [°C]
[2] | -57.34 ± 2.1

CC(=O)[O-].N#CCCn1cc[nH+]c1 [1-(2-cyanoethyl)imidazolium acetate]
Conditions | mass density, [2] [kg/m3] | refractive index, [1] | viscosity, [2] [mPa·s]
293.15 K | 1127.7 ± 4.1 | 1.48534 ± 0.007 | 108.22 ± 1.7
298.15 K | – | 1.48368 ± 0.007 | –
303.15 K | 1120.5 ± 4.1 | 1.48197 ± 0.007 | 55.28 ± 0.49
308.15 K | – | 1.48025 ± 0.007 | –
313.15 K | 1113 ± 4.1 | 1.47851 ± 0.007 | 31.57 ± 0.3
318.15 K | – | 1.4768 ± 0.007 | –
323.15 K | 1105.2 ± 4.1 | 1.47508 ± 0.007 | 19.79 ± 0.19
333.15 K | 1097.7 ± 4.1 | – | 13.32 ± 0.13
343.15 K | 1089.8 ± 4.1 | – | 9.483 ± 0.092
353.15 K | 1082 ± 4.1 | – | 7.118 ± 0.069
363.15 K | 1073.2 ± 4.1 | – | 5.294 ± 0.052
373.15 K | 1062.2 ± 4.1 | – | 4.252 ± 0.042

Conditions | Glass transition temperature [°C]
[2] | -78.12 ± 2.1

N#CCCn1cc[nH+]c1.O=S(=O)([O-])O [1-(2-cyanoethyl)imidazolium hydrogen sulfate]
Conditions | mass density, [2] [kg/m3] | refractive index, [1] | viscosity, [2] [mPa·s]
293.15 K | 1429.4 ± 4 | 1.5022 ± 0.007 | 7937 ± 700
298.15 K | – | 1.50138 ± 0.007 | –
303.15 K | 1423.3 ± 4 | 1.50034 ± 0.007 | 3102.2 ± 220
308.15 K | – | 1.49927 ± 0.007 | –
313.15 K | 1417.4 ± 4 | 1.49817 ± 0.007 | 1397.9 ± 81
318.15 K | – | 1.49708 ± 0.007 | –
323.15 K | 1411.4 ± 4 | 1.49599 ± 0.007 | 707.69 ± 33
333.15 K | 1405 ± 4 | – | 394.22 ± 14
343.15 K | 1398.8 ± 4 | – | 236.85 ± 6.5
353.15 K | 1393 ± 4 | – | 151.62 ± 3
363.15 K | 1385.9 ± 4 | – | 102.28 ± 1.4
373.15 K | 1378.6 ± 4 | – | 72.1 ± 0.55

Conditions | Glass transition temperature [°C]
[2] | -49.71 ± 2.1

CS(=O)(=O)[O-].N#CCCn1cc[nH+]c1 [1-(2-cyanoethyl)imidazolium methanesulfonate]
[1]
Conditions | refractive index
293.15 K | 1.50224 ± 0.007
298.15 K | 1.50096 ± 0.007
303.15 K | 1.49962 ± 0.007
308.15 K | 1.49826 ± 0.007
313.15 K | 1.49686 ± 0.007
318.15 K | 1.49547 ± 0.007
323.15 K | 1.49402 ± 0.007

Conditions | Glass transition temperature [°C]
[2] | -59.40 ± 2.1

N#CCCn1cc[nH+]c1.O=C([O-])C(F)(F)F [1-(2-cyanoethyl)imidazolium trifluoroacetate]
Conditions | Normal melting temperature [°C]
[2] | -13.48 ± 2

N#CCCn1cc[nH+]c1.O=S(=O)([O-])C(F)(F)F [1-(2-cyanoethyl)imidazolium trifluoromethanesulfonate]
Conditions | Normal melting temperature [°C]
[2] | 99.67 ± 2

Cn1ccnc1.O=S(=O)(O)O [1-methylimidazolium hydrogen sulfate]
[1]
Conditions | refractive index
293.15 K | 1.48955 ± 0.007
298.15 K | 1.48865 ± 0.007
303.15 K | 1.48761 ± 0.007
308.15 K | 1.48655 ± 0.007
313.15 K | 1.48552 ± 0.007
318.15 K | 1.48432 ± 0.007
323.15 K | 1.48311 ± 0.007

[2]
Conditions | Glass transition temperature [°C] | Normal melting temperature [°C]
– | -73.49 ± 2.1 | 20.88 ± 2
